# Key:
# Artemia salina = experiment: Toxicity against Artemia salina (brine shrimp) after 24 hr; assay type: functional
# Spodoptera littoralis = experiment: Antifeedant activity against fifth instar larvae of Spodoptera littoralis fed on compound-treated lettuce leaf at 10 ug/cm'2 by leaf-disk method; assay type: functional; design: unit not given here
SMILES,LC50 (Artemia salina) [µg/mL],FR50 (Spodoptera littoralis)
COC(=O)/C=C/c1ccc(OC(C)=O)c(C/C=C(\C)COC(C)=O)c1,39.8,
COc1cc2ccc(=O)oc2c(O)c1OCC=C(C)C [CAPENSIN],52.5,1.04
CC(=O)c1cc2c(cc1O)OC(C)(C)C=C2 [DEMETHYLENCECALIN],17.6,0.4
CC(C)=CCc1cc(/C=C/C(=O)O)ccc1O [DRUPANIN],104,78
COc1cc2c(cc1C(C)=O)C=CC(C)(C)O2 [ENCECALIN],0.9,0.08
C=C(C)c1cc2cc(C(C)=O)c(O)cc2o1 [EUPARIN],58.9,0.42
COc1cc2ccc(=O)oc2cc1OCC=C(C)C [PRENYLETIN 6-METHYL ETHER],17.6,0.43
CC(C)=CCOc1cc2oc(=O)ccc2cc1O [PRENYLETIN],3.8,1.06
COc1cc(O)c2c(=O)c(O)c(-c3ccc(O)c(O)c3)oc2c1 [RHAMNETIN],,71
